From PubChem BioAssay (NCI) come the findings set out here.

Assay in all cases: NCI tumour cell line growth inhibition, 48 h
In assay [1] the test system is HCT-15 colon.
For assay [2], the system named is HOP-62 NSCLC.
The subject of assay [3] is SK-MEL-28 melanoma.
The subject of assay [4] is NCI-H226 lung.
The subject of assay [5] is SF-539 CNS.
Assay [6] has as its system SN12C renal.
The test system of assay [7] is ACHN renal.
In assay [8] the test system is RPMI-8226 leukemia.
The test system of assay [9] is EKVX NSCLC.
Assay [10] concerns UACC-62 melanoma.

Each structure is given as a SMILES string. Values joined by “and” are separate entries in the source; they are usually repeats but may differ in a detail not shown here. Equal entries are not always repeated.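 1) Cells in 96-well plates. 2) Compound, 48 h, 5 concentrations. 3) Linear interpolation between surrounding doses. 4) Unreached endpoint = highest concentration. GI50: concentration for 50% inhibition of growth. The concentration for full growth arrest is given as TGI.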 Where only a bound is given, the exact number is not on record here.

Consider `Cc1cccc(NC(=O)c2cccc([N+](=O)[O-])c2O)c1C`, for which the TGI in assay [1] is over 100 µM; in assay [2] it was 52.4 µM; in [3] it was over 100 µM; in assay [4] it was over 87.7 µM; in assay [5], 96.9 µM; in [6], over 100 µM. Further, the TGI in [7] is over 100 µM; in [8], over 87.3 µM; in [9], over 100 µM; in assay [10] it was over 100 µM.

As for `O=C(O)C1CC(O)CN1` (stereo not given), the TGI in [1], in assay [2], in assay [3], in assay [4], in assay [5] and in assay [6] was over 100 µM each time. Besides, the TGI in [7], in assay [8], in [9] and in [10] was over 100 µM throughout.

Regarding `Cc1cn(-c2cc(NC(=O)c3ccc(C)c(Nc4nccc(-c5cccnc5)n4)c3)cc(C(F)(F)F)c2)cn1`, the GI50 was 3.18 µM and 4.6 µM in assay [1]; > 10 µM and 8.92 µM in assay [2]; 1.81 µM and 1.4 µM in assay [3]; > 10 µM and 16.2 µM in assay [4]; > 10 µM and 15.4 µM in assay [5]; > 10 µM and 13 µM in [6]. Further, the GI50 in [7] is > 10 µM and 9.36 µM; in [8], 2.29 µM and 2.25 µM; in assay [9], 6.23 µM and 5.98 µM; in assay [10], 1.65 µM and 1.09 µM. In addition, the TGI in assay [1] is over 38.3 µM; in assay [2], > 10 µM and 26.3 µM; in assay [3], 5.97 µM and 3.18 µM; in [4] it was > 10 µM and 39.8 µM; in assay [5], > 10 µM and 31.9 µM; in assay [6], > 10 µM and 29 µM. The TGI in assay [7] was > 10 µM and 27.2 µM; in assay [8] it was over 100 µM; in assay [9], > 10 µM and 26.1 µM; in assay [10] it was > 10 µM and 9.18 µM.

On to `O=C(O)CCc1nn2c(nc1=O)sc1ccc3ccccc3c12`, for which the TGI in [1], in assay [2], in [3], in [4], in assay [5] and in assay [6] was over 100 µM throughout. Further, the TGI in assay [7], in assay [8], in assay [9] and in [10] was over 100 µM throughout.

For `Cc1ccc(O)c(NC(=O)c2ccc(CNc3ccnc(C(F)(F)F)c3)cc2)c1`, the GI50 in assay [1] was 5.19 µM; in assay [2], 4.79 µM; in [3] it was 13.8 µM; in assay [4], 4.52 µM; in [5], 4.16 µM; in [6] it was 4.23 µM. The GI50 is 3.66 µM in assay [7], 2.64 µM in assay [8], 4.04 µM in [9] and 1.07 µM in assay [10]. Further, the TGI was 76.3 µM in assay [1]; 30.5 µM in [2]; 39.9 µM in assay [3]; 38.8 µM in [4]; 20.9 µM in assay [5]; over 100 µM in assay [6]. Moreover, the TGI in assay [7] is over 100 µM; in assay [8] it was 11.3 µM; in assay [9], 34.9 µM; in [10] it was 13.4 µM.

Consider `CCCCCCCc1cc2c3c(nc4ccccc42)C(=O)c2cccnc2-c3n1`, for which the GI50 is 0.97 µM in assay [1]; 7.14 µM in [2]; 5.75 µM in assay [3]; 6.82 µM in assay [4]; 18.8 µM in [5]; 4.81 µM in assay [6]. The GI50 in [7] was 4.08 µM; in assay [8] it was 4.27 µM; in assay [9], 4.5 µM; in assay [10] it was 5.41 µM. Further, the TGI came to 5.58 µM in assay [1]; 20 µM in assay [2]; 11 µM in assay [3]; 16.3 µM in assay [4]; 34.8 µM in assay [5]; 10.8 µM in assay [6]. In addition, the TGI in assay [7] was found to be 8.19 µM; in [8], 12.6 µM; in [9] it was 9.14 µM; in [10] it was 10.1 µM.

`COC(=O)Nc1nc2ccc(Br)cc2[nH]1`: the TGI in [1] was over 100 µM; in [2] it was over 100 µM; in assay [3], over 100 µM; in [4], over 100 µM; in assay [5], 57.3 µM; in [6], over 100 µM. Moreover, the TGI in [7], in [8], in assay [9] and in [10] was over 100 µM each time.

For the compound `C#CCOc1cccc(Nc2ncnc3cc(NC(=O)CCl)ccc23)c1`, the GI50 is 1.51 µM in [1]; 11.3 µM in assay [2]; 11 µM in assay [3]; 10.7 µM in assay [4]; 3.64 µM in [5]; 4.1 µM in assay [6]. The GI50 in [7] is 4.9 µM; in assay [8], 3.44 µM; in assay [9], 12 µM; in assay [10] it was 4.24 µM. In addition, the TGI was determined as 6.8 µM in assay [1]; 28.8 µM in assay [2]; 24.4 µM in assay [3]; 32.7 µM in assay [4]; 15 µM in assay [5]; 17.3 µM in [6]. The TGI in assay [7] came out at 18 µM; in [8], 10.4 µM; in assay [9] it was 30 µM; in assay [10] it was 16.9 µM.

`C=CCC1C(=O)CC2(C)CC(=O)C(CC=C)C12C` (stereo not given): the TGI in assay [1], in assay [2], in assay [3], in assay [4], in assay [5] and in [6] was over 100 µM each time. In addition, the TGI in assay [7], in [8], in assay [9] and in assay [10] was over 100 µM throughout.
